Data set [1] can be described thus: Bidirectional permeability assay (Caco-2 cells). Particulars: human, Caco-2. In general terms: Passage across Caco-2 layers is used to estimate intestinal permeability.
Protocol: (§2) Caco-2 cells (Evotec) were seeded at a density of 70,000 cells/well in Millicell® 24-well cell culture insert plates and maintained in an incubator (37° C., 5% CO2, 95% RH) for 21 days with media change on alternate days.
(§3) Stock solutions (10 mM) of the test compounds, atenolol (low permeability marker), propranolol (high permeability marker) and digoxin (substrate for P-gp transport pathway) were prepared in dimethylsulfoxide (DMSO). An intermediate stock solution (1 mM) was prepared by diluting 10 μL of 10 mM master stock solution with 90 μL of neat DMSO. A working stock solution (10 μM) was prepared by diluting 50 μL of 1 mM with 4950 μL of FaSSIF buffer. Post addition of compounds to the FaSSIF, samples were subjected to sonication for 2 hours, and centrifuged at 4000 RPM for 30 minutes at 37° C. The 4 mL of resultant supernatant was directly used in the assay. The final DMSO concentration in the transport experiments was 1%.
(§4) On the day of assay, Caco-2 monolayers were washed twice with transport buffer (HBSS, pH 7.4) and pre-incubated for 30 min (37° C., 5% CO2, 95% RH) in an incubator. The electrical resistance of the monolayers was measured with a Millicell®—ERS system. Monolayers with trans-epithelial electrical resistance (TEER) values greater than 350 ohm·cm^2 were selected for the assay.
(§5) The assay was conducted in absorptive direction (A2B) and secretory (B2A) directions. Transport experiments were initiated by addition of transport assay buffer (FaSSIF buffer prepared in HBSS) consisting of compounds to the donor compartment (apical chamber A-B; basolateral chamber B-A) in duplicate (n=2) wells. Drug free HBSS buffer (pH 7.4) containing 1% bovine serum albumin (BSA) was introduced to the receiver (A-B-basolateral; B-A-Apical) compartments. The volumes of apical and basolateral compartments were 0.4 and 0.8 mL, respectively. After adding dosing solution, plates were incubated in an incubator for 120 minutes at 37° C. After 120 minutes, donor and receiver samples were collected and matrix matched (1:1, 30 μL study sample+30 μL blank buffer) with the opposite buffer. Dosing samples matrix matched (1:1, 30 μL study sample+30 μL blank buffer) with the opposite buffer. Samples were processed by adding acetonitrile containing internal standard (60 μL study sample+200 μL acetonitrile containing internal standard—Tolbutamide, 500 ng/mL). Samples were vortexed and centrifuged at 4000 rpm for 10 minutes. The obtained supernatant (100 μL) was diluted with 100 μL of water and transferred to fresh 96 well plates. The concentration of compounds in the samples was analyzed by liquid chromatography tandem mass spectrometry (LC-MS/MS) method using discovery grade bio-analytical method, as applicable.
(§6) The mean apparent permeability (Papp, ×10^−6 cm/sec) of the test compounds, atenolol, propranolol and digoxin were calculated as follows:
The target of the next data set is T1, hLBAT (Homo sapiens, UniProt Q14973).
T1 construct: expressed in transfected cells; kept under Geneticin selection
T1 sequence (Q14973 1-349): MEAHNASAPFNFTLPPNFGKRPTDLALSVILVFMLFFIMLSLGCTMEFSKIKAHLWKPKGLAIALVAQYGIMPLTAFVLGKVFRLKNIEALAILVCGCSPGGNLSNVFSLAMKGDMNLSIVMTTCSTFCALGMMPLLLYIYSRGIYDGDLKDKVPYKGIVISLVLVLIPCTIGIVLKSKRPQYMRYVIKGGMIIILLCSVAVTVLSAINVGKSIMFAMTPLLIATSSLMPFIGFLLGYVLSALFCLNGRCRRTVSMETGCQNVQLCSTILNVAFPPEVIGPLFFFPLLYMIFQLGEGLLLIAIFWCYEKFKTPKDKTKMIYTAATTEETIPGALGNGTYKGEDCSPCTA
The data set can be described thus: LBAT (h/m) assay, 3H-taurocholic acid uptake in human LBAT-overexpressing cells. To be noted: 0.3 μM 3H-taurocholic acid and 7.5 μM cold taurocholic acid, 20 minutes. In kind it is cell-based. The procedure: 20,000 cells (Human or Mouse LBAT-overexpressing cells) were seeded in 96-wells plate (Corning CLS3809) in 100 μL MEM-alpha medium (Gibco 12571-063) supplemented with 10% FBS (Gibco 10438026) containing Geneticin (Gibco 10131-027) (1 mg/mL) and incubated at 37° C. in 5% CO2 for 24 hours. After incubation, media was decanted from the wells and cells were washed two times with 300 μL of basal MEM-alpha medium (FBS-free). After decanting basal MEM-alpha medium each time, plates were tapped against paper towel to ensure maximum removal of residual media. For human LBAT, incubation mix was prepared by adding test inhibitor dilutions (3-fold serial dilution in DMSO (Sigma D2650), 10 points) in MEM-alpha (without FBS) containing 0.3 μM 3H-taurocholic acid (ARC ART-1368) and 7.5 μM cold taurocholic acid (Sigma T4009) (maintaining 0.2% final DMSO concentration). For mouse LBAT, incubation mix was prepared by adding test inhibitor dilutions (3-fold serial dilution in DMSO, 10 points) in MEM-alpha (without FBS) containing 0.3 μM 3H-taurocholic acid and 25 μM cold taurocholic acid maintaining 0.2% final DMSO concentration). 50 μL of incubation mix containing test inhibitors was then added to the wells (in duplicate) and the plates were incubated for 20 minutes in a CO2 incubator at 37° C. After incubation, the reaction was stopped by keeping the plates on ice water mix for 2-3 minutes and then the incubation mix was aspirated completely from the wells. The wells were washed two times with 250 μL of chilled unlabelled 1 mM taurocholic acid dissolved in HEPES (Gibco 15630080)-buffered (10 mM) HBSS (Gibco 14175079) (pH 7.4). The plates were tapped against a paper towel after every wash to ensure maximum removal of blocking buffer.
100 μL of MicroScint-20 (PerkinElmer 6013621) was added to the wells and kept overnight at room temperature before reading the plates in TopCount NXT™ Microplate Scintillation and Luminescence Counter from PerkinElmer under 3H Test protocol (set at 120 seconds reading time per well, with normal plate orientation).
(§1) All test compounds were provided in powder form at room temperature. 10 mM DMSO stocks of the test compounds were prepared, aliquoted and stored at −20° C. From the 10 mM DMSO stock of the compounds, a 3-fold serial dilution in DMSO was prepared to get a total of 10 dilutions of the test compounds. 0.5 μL of this dilution in DMSO was added to 250 μL of FBS-free basal media containing 3H-taurocholic acid and cold taurocholic acid to prepare the incubation mixture.

For a further data set, the target named is T2, hIBAT (Homo sapiens, UniProt Q12908).
T2 construct: expressed in transfected cells; kept under Puromycin selection
T2 sequence (Q12908 1-348): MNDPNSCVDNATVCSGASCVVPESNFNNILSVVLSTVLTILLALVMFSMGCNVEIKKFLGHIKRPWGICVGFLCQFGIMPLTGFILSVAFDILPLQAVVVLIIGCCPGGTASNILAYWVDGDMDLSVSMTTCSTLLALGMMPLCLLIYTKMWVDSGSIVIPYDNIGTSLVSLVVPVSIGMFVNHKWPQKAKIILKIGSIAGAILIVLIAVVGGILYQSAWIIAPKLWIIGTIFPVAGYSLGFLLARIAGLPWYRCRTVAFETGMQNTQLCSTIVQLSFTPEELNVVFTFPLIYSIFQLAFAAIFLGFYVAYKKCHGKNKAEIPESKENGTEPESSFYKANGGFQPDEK
The data set can be described thus: IBAT (h/m) assay, 3H-taurocholic acid uptake in human IBAT-overexpressing cells. In kind it is cell-based. Particulars: 0.25 μM 3H-taurocholic acid and 5 μM cold taurocholic acid, 20 minutes. The procedure:
10,000 cells (Human or Mouse IBAT-overexpressing cells) were seeded in 96-wells plate (Corning CLS3809) in 200 μL MEM-alpha medium (Gibco 12571-063) supplemented with 10% FBS (Gibco 10438026) containing Puromycin (Gibco A1113803) (10 μg/mL) and incubated at 37° C. in 5% CO2 for 48 hours. After incubation, media was decanted from the wells and cells were washed two times with 300 μL of basal MEM-alpha medium (FBS-free). After decanting basal MEM-alpha medium each time, plates were tapped against paper towel to ensure maximum removal of residual media. Test inhibitor dilutions (highest test concentration being 10 μM, 3-fold serial dilution, 10 points) prepared in DMSO (Sigma D2650) were added in incubation mix (maintaining 0.2% final DMSO concentration) containing 0.25 μM 3H-taurocholic acid (ARC ART-1368) and 5 μM of cold taurocholic acid (Sigma T4009). 50 μL of incubation mix containing test inhibitors was then added to the wells (in duplicate) and the plates were incubated for 20 minutes in a CO2 incubator at 37° C. After incubation, the reaction was stopped by keeping the plates on ice water mix for 2-3 minutes and then the incubation mix was aspirated completely from the wells. The wells were washed two times with 250 μL of chilled unlabelled 1 mM taurocholic acid dissolved in HEPES (Gibco 15630080)-buffered (10 mM) HBSS (Gibco 14175079) (pH 7.4). The plates were tapped against a paper towel after every wash to ensure maximum removal of blocking buffer.
100 μL of MicroScint-20 (PerkinElmer 6013621) was added to the wells and kept overnight at room temperature before reading the plates in TopCount NXT™ Microplate Scintillation and Luminescence Counter from PerkinElmer under 3H Test protocol (set at 120 seconds reading time per well).
as §1

Data set [2] deals with Caco-2 cells. In words: Bidirectional permeability assay (Caco-2 cells). Particulars: FaSSIF buffer, 120 minutes at 37° C.; for Permeability (Caco-2) Papp A2B: absorptive direction (A2B); for Permeability (Caco-2) Papp B2A: secretory direction (B2A).
Protocol: as §2, §3, §4, §5, §6
In data set [3] the test system is Caco-2 cells.
Protocol: as §2, §3, §4, §5, §6
On the set-up of data set [4]: species or system mice (CD1). Particulars: mouse, in vivo. The procedure: Male mice (C57BL/6 or CD1) or Wistar rats of 8-9 weeks old were used. For each test compound, two groups of 3 animals each were used. One group was administered a single intravenous dose of 1 mg/kg (vehicle 100% DMSO) through the tail vein and the other group was administered a single oral dose of 10 mg/kg through gavage needle. The group that was administered an oral dose was fasted overnight. Blood samples were collected after 0.083, 0.25, 0.5, 1, 2, 4, 6, 8 and 24 hours following intravenous administration, and after 0.25, 0.5, 1, 2, 4, 6, 8 and 24 hours following oral administration. Blood samples were taken from saphenous vein. 0.2% EDTA was used as the anticoagulant. The samples were analyzed by a discovery grade bioanalytical method developed for the estimation of test compound in plasma, using an LC-MS/MS system.

Like-named read-outs stand apart in the source and are kept apart here.

Consider `CCCCC1(CC)CN(c2ccc(F)cc2)c2cc(SC)c(O/C=C(\F)C(=O)O)cc2S(=O)(=O)C1` (centres unmarked) [Example 5, (Z)-3-((3-butyl-3-ethyl-5-(4-fluorophenyl)-7-(methylthio)-1,1-dioxido-2,3,4,5-tetrahydro-1,5-benzothiazepin-8-yl)oxy)-2-fluoroacrylic acid], for which, in data set [1], the Papp A→B – broadly, how fast a substance crosses the layer from the apical side – at 120 min, 10 µM amounted to 2.3 ×10⁻⁶ cm/s and the basolateral-to-apical permeability (Papp B→A) (commonly how fast a substance crosses the layer from the basolateral side) at 120 min, 10 µM amounted to 2 ×10⁻⁶ cm/s. Besides, the IC50 – broadly, the concentration that inhibits the measured activity by half – against hLBAT was 0.014 µM. Also, the midpoint of inhibition against hIBAT, the IC50, lay at 0.005 µM.
Regarding “(S)—(Z)-3-((3-butyl-3-ethyl-5-(4-fluorophenyl)-7-(methylthio)-1,1-dioxido-2,3,4,5-tetrahydro-1,5-benzothiazepin-8-yl)oxy)-2-fluoroacrylic acid and (R)—(Z)-3-((3-butyl-3-ethyl-5-(4-fluorophenyl)-7-(methylthio)-1,1-dioxido-2,3,4,5-tetrahydro-1,5-benzothiazepin-8-yl)oxy)-2-fluoroacrylic acid [Example 7]”, in the data set on Caco-2 cells [2], the “Permeability (Caco-2) Papp A2B” value was found to be 5.7 ×10⁻⁶ cm/s. In the data set with Caco-2 cells [2], the “Permeability (Caco-2) Papp B2A” value was found to be 4.1 ×10⁻⁶ cm/s. In addition, the IC50 against hLBAT came to 0.014 µM; on hIBAT, 0.005 µM.
As for `CCCC[C@@]1(CC)CN(c2ccccc2)c2cc(N(C)C)c(O/C=C/C(=O)O)cc2S(=O)(=O)N1.CCCC[C@]1(CC)CN(c2ccccc2)c2cc(N(C)C)c(O/C=C/C(=O)O)cc2S(=O)(=O)N1` (mixture of isomers) [Example 14, (S)-(E)-3-((3-butyl-7-(dimethylamino)-3-ethyl-1,1-dioxido-5-phenyl-2,3,4,5-tetrahydro-1,2,5-benzothiadiazepin-8-yl)oxy)acrylic acid and (R)-(E)-3-((3-butyl-7-(dimethylamino)-3-ethyl-1,1-dioxido-5-phenyl-2,3,4,5-tetrahydro-1,2,5-benzothiadiazepin-8-yl)oxy)acrylic acid], in the data set on Caco-2 cells [2], the “Permeability (Caco-2) Papp A2B” value amounted to 11 ×10⁻⁶ cm/s and the “Permeability (Caco-2) Papp B2A” value is 20 ×10⁻⁶ cm/s. For the same compound, the IC50 against hIBAT amounted to 0.006 µM.
In data set [1], `CCCCC1(CCCC)CN(c2ccc(F)cc2)c2cc(SC)c(O/C=C(\F)C(=O)O)cc2S(=O)(=O)C1` [Example 1, (Z)-3-((3,3-dibutyl-5-(4-fluorophenyl)-7-(methylthio)-1,1-dioxido-2,3,4,5-tetrahydro-1,5-benzothiazepin-8-yl)oxy)-2-fluoroacrylic acid] registered a Papp A→B at 120 min, 10 µM of 0.9 ×10⁻⁶ cm/s. This compound gave a Papp B→A at 120 min, 10 µM in data set [1] of 0.9 ×10⁻⁶ cm/s. Moreover, the IC50 came to 0.049 µM against hLBAT and 0.021 µM against hIBAT.
On to “(S)—(Z)-3-((3-butyl-7-(dimethylamino)-3-ethyl-1,1-dioxido-5-phenyl-2,3,4,5-tetrahydro-1,2,5-benzothiadiazepin-8-yl)oxy)-2-fluoroacrylic acid and (R)—(Z)-3-((3-butyl-7-(dimethylamino)-3-ethyl-1,1-dioxido-5-phenyl-2,3,4,5-tetrahydro-1,2,5-benzothiadiazepin-8-yl)oxy)-2-fluoroacrylic acid [Example 3]”, for which, in the data set on Caco-2 cells [2], the “Permeability (Caco-2) Papp A2B” value stood at 1.8 ×10⁻⁶ cm/s and the “Permeability (Caco-2) Papp B2A” value stood at 2.2 ×10⁻⁶ cm/s. This compound also registered an IC50 against hLBAT of 0.427 µM. For the same compound, on hIBAT, the IC50 was 0.008 µM.
Take “(S)-(E)-3-((3-butyl-3-ethyl-5-(4-fluorophenyl)-7-(methylthio)-1,1-dioxido-2,3,4,5-tetrahydro-1,5-benzothiazepin-8-yl)oxy)acrylic acid and (R)-(E)-3-((3-butyl-3-ethyl-5-(4-fluorophenyl)-7-(methylthio)-1,1-dioxido-2,3,4,5 tetrahydro-1,5-benzothiazepin-8-yl)oxy)acrylic acid [Example 10]”: in the data set on Caco-2 cells [3], the “Permeability (Caco-2) Papp A2B” value is 10 ×10⁻⁶ cm/s. The “Permeability (Caco-2) Papp B2A” value in the data set on Caco-2 cells [3] came to 5.4 ×10⁻⁶ cm/s. Also, the IC50 on hLBAT amounted to 0.113 µM; against hIBAT it was 0.004 µM. For the same compound, the “Bioavailability (%)” value in data set [4] was 41 (CD1) %.
In data set [1], `CCCCC1(CC)CN(c2ccccc2)c2cc(N(C)C)c(O/C=C/C(=O)O)cc2S(=O)(=O)N1` (centres unmarked) [Example 13, (E)-3-((3-butyl-7-(dimethylamino)-3-ethyl-1,1-dioxido-5-phenyl-2,3,4,5-tetrahydro-1,2,5-benzothiadiazepin-8-yl)oxy)acrylic acid] displayed a Papp A→B at 120 min, 10 µM of 22 ×10⁻⁶ cm/s and a Papp B→A at 120 min, 10 µM of 18 ×10⁻⁶ cm/s. Besides, the IC50 against hLBAT is 1.86 µM. In addition, at hIBAT, half-maximal inhibition (IC50) required 0.013 µM.
For the compound `CCCC1(CC)CN(c2ccccc2)c2cc(SC)c(O/C=C(\F)C(=O)O)cc2S(=O)(=O)C1` (centres unmarked) [Example 12, (Z)-3-((3-ethyl-7-(methylthio)-1,1-dioxido-5-phenyl-3-propyl-2,3,4,5-tetrahydrobenzo-1,5-thiazepin-8-yl)oxy)-2-fluoroacrylic acid], the Papp A→B at 120 min, 10 µM in data set [1] turned out to be 3.8 ×10⁻⁶ cm/s. Moreover, in data set [1], the Papp B→A at 120 min, 10 µM was 4.1 ×10⁻⁶ cm/s. For the same compound, the IC50 was 0.012 µM against hLBAT and 0.156 µM against hIBAT.

The values above are taken from patent publication US11267794B2, “Benzothia(di)azepine compounds and their use as bile acid modulators” (Albireo AB, priority 2019, dated 2022).
